Reference: US11312727B1, “Macrocyclic flu endonuclease inhibitors” (Janssen BioPharma, Inc., priority 2018, dated 2022)

What was measured:
[1] = in vitro; settings: human, CC50, uninfected A549 cells, CellTiter-Glo
[2] = tested on: Influenza strain A549 A/WSN/33 (H1N1); assay: microbe, parasite or virus in culture; format: cell-based; settings: Influenza A virus, A549, 20 h, A549 cells, influenza A/WSN/33 (H1N1), 20 hours incubation; read-out: A549_A(H1N1) EC50

Molecule `Cc1ccc2c(c1F)OC/C=C\CN1CN([C@H]2c2ccccc2)n2ccc(=O)c(O)c2C1=O` (single isomer, unassigned) [Compound 135B, (18*S,Z)-4-fluoro-12-hydroxy-3-methyl-18-phenyl-6,9-dihydro-18H-10,17-methanobenzo[b]pyrido[1,2-f][1]oxa[5,6,9]triazacyclotridecine-11,13-dione] has a CC50 [1] of over 0.2 µM and an EC50 [2] of over 0.1 µM.

With `O=C1c2c(O)c(=O)ccn2N2CN1C/C=C\COc1c(ccc(F)c1F)[C@H]2c1ccccc1C1CC1` (single isomer, unassigned) [Compound 136A, (18*R,*Z)-18-(2-cyclopropylphenyl)-3,4-difluoro-12-hydroxy-6,9-dihydro-18H-10,17-methanobenzo[b]pyrido[1,2-f][1]oxa[5,6,9]triazacyclotridecine-11,13-dione] the CC50 [1] was over 0.2 µM and the EC50 [2] was 0.0063 µM.

In the case of `O=C1c2c(O)c(=O)ccn2N2CN1C/C=C\COc1c(ccc(F)c1F)[C@@H]2c1ccccc1C1CC1` (single isomer, unassigned) [Compound 136B, (18*S,*Z)-18-(2-cyclopropylphenyl)-3,4-difluoro-12-hydroxy-6,9-dihydro-18H-10,17-methanobenzo[b]pyrido[1,2-f][1]oxa[5,6,9]triazacyclotridecine-11,13-dione], the CC50 [1] is reported as over 0.2 µM and the EC50 [2] is reported as over 0.1 µM.

With `O=C1c2c(O)c(=O)ccn2N2CN1CC/C=C/COc1cccc3c1[C@@H]2c1cccc(F)c1SC3` (single isomer, unassigned) [Compound 137A, (1*R,13*E)-25-fluoro-7-hydroxy-16-oxa-23-thia-2,3,10-triazahexacyclo[15.12.1.12,10.03,8.021,30.024,29]hentriaconta-4,7,13,17,19,21(30),24(29),25,27-nonaene-6,9-dione] the CC50 [1] was over 0.2 µM and the EC50 [2] was over 0.1 µM.

`O=C1c2c(O)c(=O)ccn2N2CN1CC/C=C/COc1cccc3c1[C@H]2c1cccc(F)c1SC3` (single isomer, unassigned) [Compound 137B, (1*S,13*E)-25-fluoro-7-hydroxy-16-oxa-23-thia-2,3,10-triazahexacyclo[15.12.1.12,10.03,8.021,30.024,29]hentriaconta-4,7,13,17,19,21(30),24(29),25,27-nonaene-6,9-dione] showed a CC50 [1] of over 0.2 µM and an EC50 [2] of 0.0053 µM.

Work on `C[C@H]1/C=C\COc2cccc3c2[C@@H](c2ccccc2SC3)N2CN1C(=O)c1c(O)c(=O)ccn12` (single isomer, unassigned) [Compound 138AA, (13*S,21a*S,Z)-16-hydroxy-13-methyl-6,10,13,21a-tetrahydro-7,8-(epiprop[1]en[1]yl[3]ylidene)-14,21-methanobenzo[6,7]thiepino[4,5-c]pyrido[1,2-f][1]oxa[5,6,9]triazacyclotridecine-15,17-dione] yielded a CC50 [1] of over 0.05 µM and an EC50 [2] of 0.0008 µM.

`C[C@@H]1/C=C\COc2cccc3c2[C@@H](c2ccccc2SC3)N2CN1C(=O)c1c(O)c(=O)ccn12` (single isomer, unassigned) [Compound 138AB, (13*R,21a*S,Z)-16-hydroxy-13-methyl-6,10,13,21a-tetrahydro-7,8-(epiprop[1]en[1]yl[3]ylidene)-14,21-methanobenzo[6,7]thiepino[4,5-c]pyrido[1,2-f][1]oxa[5,6,9]triazacyclotridecine-15,17-dione] gave a CC50 [1] of over 0.05 µM and an EC50 [2] of 0.0015 µM.

`C[C@@H]1/C=C\COc2cccc3c2[C@H](c2ccccc2SC3)N2CN1C(=O)c1c(O)c(=O)ccn12` (single isomer, unassigned) [Compound 138BB, (13*R,21a*R,Z)-16-hydroxy-13-methyl-6,10,13,21a-tetrahydro-7,8-(epiprop[1]en[1]yl[3]ylidene)-14,21-methanobenzo[6,7]thiepino[4,5-c]pyrido[1,2-f][1]oxa[5,6,9]triazacyclotridecine-15,17-dione] showed a CC50 [1] of over 0.2 µM and an EC50 [2] of over 0.1 µM.

In the case of `C[C@@H]1/C=C/COc2cccc3c2[C@H](c2ccccc2SC3)N2CN1C(=O)c1c(O)c(=O)ccn12` (single isomer, unassigned) [Compound 138C, (9*R,17a*R,E)-12-hydroxy-9-methyl-2,6,9,17a-tetrahydro-3,4-(epiprop[1]en[1]yl[3]ylidene)-10,17-methanobenzo[6,7]thiepino[4,5-c]pyrido[1,2-f][1]oxa[5,6,9]triazacyclotridecine-11,13-dione], the CC50 [1] is reported as over 0.2 µM and the EC50 [2] is reported as over 0.1 µM.

Work on `C[C@H]1/C=C/COc2cccc3c2[C@@H](c2ccccc2SC3)N2CN1C(=O)c1c(O)c(=O)ccn12` (single isomer, unassigned) [Compound 138D, (9*S,17a*S,E)-12-hydroxy-9-methyl-2,6,9,17a-tetrahydro-3,4-(epiprop[1]en[1]yl[3]ylidene)-10,17-methanobenzo[6,7]thiepino[4,5-c]pyrido[1,2-f][1]oxa[5,6,9]triazacyclotridecine-11,13-dione] yielded a CC50 [1] of over 0.2 µM and an EC50 [2] of 0.0009 µM.

Molecule `O=C1c2c(O)c(=O)ccn2N2CN1C[C@H]1C[C@@H]1COc1c(ccc(F)c1F)[C@@H]2c1ccccc1` (single isomer, unassigned) [Compound 139AA, (1a*S,8*S,17a*S)-4,5-difluoro-14-hydroxy-8-phenyl-1a,2,17,17a-tetrahydro-1H,8H-9,16-methanobenzo[b]cyclopropa[k]pyrido[1,2-f][1]oxa[5,6,9]triazacyclotridecine-13,15-dione] has a CC50 [1] of 26.9 µM and an EC50 [2] of 8.32 µM.

Work on `O=C1c2c(O)c(=O)ccn2N2CN1C[C@@H]1C[C@H]1COc1c(ccc(F)c1F)[C@@H]2c1ccccc1` (single isomer, unassigned) [Compound 139AB, (1a*R,8*S,17a*R)-4,5-difluoro-14-hydroxy-8-phenyl-1a,2,17,17a-tetrahydro-1H,8H-9,16-methanobenzo[b]cyclopropa[k]pyrido[1,2-f][1]oxa[5,6,9]triazacyclotridecine-13,15-dione] yielded a CC50 [1] of 35.9 µM and an EC50 [2] of 4.89 µM.

Work on `O=C1c2c(O)c(=O)ccn2N2CN1C[C@H]1C[C@@H]1COc1c(ccc(F)c1F)[C@H]2c1ccccc1` (single isomer, unassigned) [Compound 139BA, (1a*S,8*R,17a*S)-4,5-difluoro-14-hydroxy-8-phenyl-1a,2,17,17a-tetrahydro-1H,8H-9,16-methanobenzo[b]cyclopropa[k]pyrido[1,2-f][1]oxa[5,6,9]triazacyclotridecine-13,15-dione] yielded a CC50 [1] of over 0.1 µM and an EC50 [2] of 0.0446 µM.

In the case of `O=C1c2c(O)c(=O)ccn2N2CN1C[C@@H]1C[C@H]1COc1c(ccc(F)c1F)[C@H]2c1ccccc1` (single isomer, unassigned) [Compound 139BB, (1a*R,8*R,17a*R)-4,5-difluoro-14-hydroxy-8-phenyl-1a,2,17,17a-tetrahydro-1H,8H-9,16-methanobenzo[b]cyclopropa[k]pyrido[1,2-f][1]oxa[5,6,9]triazacyclotridecine-13,15-dione], the CC50 [1] is reported as over 0.05 µM and the EC50 [2] is reported as over 0.025 µM.

`O=C1c2c(O)c(=O)ccn2N2CN1C/C=C/COc1cc(F)c(F)c3c1[C@@H]2c1ccccc1SC3` (single isomer, unassigned) [Compound 140A, (17a*R,*E)-24,25-difluoro-12-hydroxy-2,6,9,17a-tetrahydro-3,4-(epiprop[1]en[1]yl[3]ylidene)-10,17-methanobenzo[6,7]thiepino[4,5-c]pyrido[1,2-f][1]oxa[5,6,9]triazacyclotridecine-11,13-dione] gave a CC50 [1] of 9.96 µM and an EC50 [2] of 0.0963 µM.

For `O=C1c2c(O)c(=O)ccn2N2CN1C/C=C/COc1cc(F)c(F)c3c1[C@H]2c1ccccc1SC3` (single isomer, unassigned) [Compound 140B, (17a*S,*E)-24,25-difluoro-12-hydroxy-2,6,9,17a-tetrahydro-3,4-(epiprop[1]en[1]yl[3]ylidene)-10,17-methanobenzo[6,7]thiepino[4,5-c]pyrido[1,2-f][1]oxa[5,6,9]triazacyclotridecine-11,13-dione], the CC50 [1] was over 0.05 µM and the EC50 [2] was 0.0003 µM.

In the case of `O=C1c2c(O)c(=O)ccn2N2CN1C/C=C\COc1cc(F)c(F)c3c1[C@@H]2c1ccccc1SC3` (single isomer, unassigned) [Compound 140C, (21a*R,*Z)-24,25-difluoro-16-hydroxy-6,10,13,21a-tetrahydro-7,8-(epiprop[1]en[1]yl[3]ylidene)-14,21-methanobenzo[6,7]thiepino[4,5-c]pyrido[1,2-f][1]oxa[5,6,9]triazacyclotridecine-15,17-dione], the CC50 [1] is reported as over 10 µM and the EC50 [2] is reported as 0.0374 µM.

Molecule `O=C1c2c(O)c(=O)ccn2N2CN1C/C=C\COc1cc(F)c(F)c3c1[C@H]2c1ccccc1SC3` (single isomer, unassigned) [Compound 140D, (21a*S,*Z)-24,25-difluoro-16-hydroxy-6,10,13,21a-tetrahydro-7,8-(epiprop[1]en[1]yl[3]ylidene)-14,21-methanobenzo[6,7]thiepino[4,5-c]pyrido[1,2-f][1]oxa[5,6,9]triazacyclotridecine-15,17-dione] has a CC50 [1] of over 0.05 µM and an EC50 [2] of 0.0012 µM.

With `C[C@@H]1/C=C/COc2c(F)cccc2[C@@H](c2ccccc2)N2CN1C(=O)c1c(O)c(=O)ccn12` (single isomer, unassigned) [Compound 141AA, (9*R,18*R,E)-4-fluoro-12-hydroxy-9-methyl-18-phenyl-6,9-dihydro-18H-10,17-methanobenzo[b]pyrido[1,2-f][1]oxa[5,6,9]triazacyclotridecine-11,13-dione] the CC50 [1] was over 0.05 µM and the EC50 [2] was 0.0015 µM.

With `C[C@H]1/C=C/COc2c(F)cccc2[C@@H](c2ccccc2)N2CN1C(=O)c1c(O)c(=O)ccn12` (single isomer, unassigned) [Compound 141AB, (9*S,18*R,E)-4-fluoro-12-hydroxy-9-methyl-18-phenyl-6,9-dihydro-18H-10,17-methanobenzo[b]pyrido[1,2-f][1]oxa[5,6,9]triazacyclotridecine-11,13-dione] the CC50 [1] was over 0.05 µM and the EC50 [2] was 0.002 µM.

With `C[C@@H]1/C=C/COc2c(F)cccc2[C@H](c2ccccc2)N2CN1C(=O)c1c(O)c(=O)ccn12` (single isomer, unassigned) [Compound 141BA, (9*R,18*S,E)-4-fluoro-12-hydroxy-9-methyl-18-phenyl-6,9-dihydro-18H-10,17-methanobenzo[b]pyrido[1,2-f][1]oxa[5,6,9]triazacyclotridecine-11,13-dione] the CC50 [1] was over 20 µM and the EC50 [2] was 0.306 µM.
